# Source: PubChem BioAssay AID1259407 (Chemical Carcinogenesis Research Information System (CCRIS), 2018)
# The source made the active and inactive calls. No rule for the calls is given here.
# Tested on: CCRIS mutagenicity, Ames/micronucleus/aberration tests
# Test: CCRIS mutagenicity studies
# [1] = Test System: AMES SALMONELLA TYPHIMURIUM, Strain/Indicator: TA98, Metabolic Activation: NONE, Method: PREINCUBATION
# [2] = Test System: AMES SALMONELLA TYPHIMURIUM, Strain/Indicator: TA100, Metabolic Activation: NONE, Method: PREINCUBATION
# [3] = Test System: AMES SALMONELLA TYPHIMURIUM, Strain/Indicator: TA1535, Metabolic Activation: NONE, Method: PREINCUBATION
# [4] = Test System: AMES SALMONELLA TYPHIMURIUM, Strain/Indicator: TA1537, Metabolic Activation: NONE, Method: PREINCUBATION
smiles,measurement,setting,value
CCCCC(CC)COS(=O)(=O)O (stereo not drawn),mutagenic call,"End Point: IN VITRO CHROMOSOMAL ABERRATIONS, Test System: CHO-LB CELLS, Metabolic Activation: NONE",inactive; negative
same,mutagenic call,"End Point: IN VITRO CHROMOSOMAL ABERRATIONS, Test System: CHO-LB CELLS, Metabolic Activation: RAT, LIVER, S-9, AROCLOR 1254",inactive; negative
same,mutagenic call,"Test System: AMES SALMONELLA TYPHIMURIUM, Strain/Indicator: TA98, Metabolic Activation: HAMSTER, LIVER, S-9, AROCLOR 1254 (10%), Method: PREINCUBATION",inactive; negative
same,mutagenic call,[1],inactive; negative
same,mutagenic call,"Test System: AMES SALMONELLA TYPHIMURIUM, Strain/Indicator: TA98, Metabolic Activation: RAT, LIVER, S-9, AROCLOR 1254 (10%), Method: PREINCUBATION",inactive; negative
same,mutagenic call,"Test System: AMES SALMONELLA TYPHIMURIUM, Strain/Indicator: TA100, Metabolic Activation: HAMSTER, LIVER, S-9, AROCLOR 1254 (10%), Method: PREINCUBATION",inactive; negative
same,mutagenic call,[2],inactive; negative
same,mutagenic call,"Test System: AMES SALMONELLA TYPHIMURIUM, Strain/Indicator: TA100, Metabolic Activation: RAT, LIVER, S-9, AROCLOR 1254 (10%), Method: PREINCUBATION",inactive; negative
same,mutagenic call,"Test System: AMES SALMONELLA TYPHIMURIUM, Strain/Indicator: TA1535, Metabolic Activation: HAMSTER, LIVER, S-9, AROCLOR 1254 (10%), Method: PREINCUBATION",inactive; negative
same,mutagenic call,[3],inactive; negative
same,mutagenic call,"Test System: AMES SALMONELLA TYPHIMURIUM, Strain/Indicator: TA1535, Metabolic Activation: RAT, LIVER, S-9, AROCLOR 1254 (10%), Method: PREINCUBATION",inactive; negative
same,mutagenic call,"Test System: AMES SALMONELLA TYPHIMURIUM, Strain/Indicator: TA1537, Metabolic Activation: HAMSTER, LIVER, S-9, AROCLOR 1254 (10%), Method: PREINCUBATION",inactive; negative
same,mutagenic call,[4],inactive; negative
same,mutagenic call,"Test System: AMES SALMONELLA TYPHIMURIUM, Strain/Indicator: TA1537, Metabolic Activation: RAT, LIVER, S-9, AROCLOR 1254 (10%), Method: PREINCUBATION",inactive; negative
same,mutagenic call,"Test System: MOUSE LYMPHOMA, Strain/Indicator: L5178Y (TK+/TK-), Metabolic Activation: NONE, Method: SUSPENSION/PLATE",inactive; negative
same,mutagenic call,"Test System: MOUSE LYMPHOMA, Strain/Indicator: L5178Y (TK+/TK-), Metabolic Activation: RAT, LIVER, S-9, AROCLOR 1254, Method: SUSPENSION/PLATE",inactive; negative
O=[N+]([O-])c1ccc2c(c1)Oc1ccccc1O2,mutagenic call,"Test System: AMES SALMONELLA TYPHIMURIUM, Strain/Indicator: TA98(1,8-DNP6), Metabolic Activation: NONE, Method: PREINCUBATION",active; positive
same,mutagenic call,"Test System: AMES SALMONELLA TYPHIMURIUM, Strain/Indicator: TA98(1,8-DNP6), Metabolic Activation: NONE, Method: SUSPENSION",active; positive
same,mutagenic call,"Test System: AMES SALMONELLA TYPHIMURIUM, Strain/Indicator: TA98(1,8-DNP6), Metabolic Activation: RAT, LIVER, S-9, PCB (5%), Method: PREINCUBATION",active; positive
same,mutagenic call,"Test System: AMES SALMONELLA TYPHIMURIUM, Strain/Indicator: TA98(NR), Metabolic Activation: NONE, Method: SUSPENSION",inactive; negative
same,mutagenic call,"Test System: AMES SALMONELLA TYPHIMURIUM, Strain/Indicator: TA98(NR), Metabolic Activation: RAT, LIVER, S-9 (15%), Method: PREINCUBATION",active; positive
same,mutagenic call,"Test System: AMES SALMONELLA TYPHIMURIUM, Strain/Indicator: TA98(NR), Metabolic Activation: RAT, LIVER, S-9, 3-METHYLCHOLANTHRENE (15%), Method: PREINCUBATION",active; positive
same,mutagenic call,"Test System: AMES SALMONELLA TYPHIMURIUM, Strain/Indicator: TA98(NR), Metabolic Activation: RAT, LIVER, S-9, BETA-NAPHTHOFLAVONE (15%), Method: PREINCUBATION",active; positive
same,mutagenic call,"Test System: AMES SALMONELLA TYPHIMURIUM, Strain/Indicator: TA98(NR), Metabolic Activation: RAT, LIVER, S-9, PCB (5 OR 15%), Method: PREINCUBATION",active; positive
same,mutagenic call,"Test System: AMES SALMONELLA TYPHIMURIUM, Strain/Indicator: TA98(NR), Metabolic Activation: RAT, LIVER, S-9, PHENOBARBITAL (15%), Method: PREINCUBATION",active; positive
same,mutagenic call,[1],active; positive
same,mutagenic call,"Test System: AMES SALMONELLA TYPHIMURIUM, Strain/Indicator: TA98, Metabolic Activation: NONE, Method: STANDARD PLATE",active; positive
same,mutagenic call,"Test System: AMES SALMONELLA TYPHIMURIUM, Strain/Indicator: TA98, Metabolic Activation: NONE, Method: SUSPENSION",active; positive
same,mutagenic call,"Test System: AMES SALMONELLA TYPHIMURIUM, Strain/Indicator: TA98, Metabolic Activation: RAT, LIVER, S-9, AROCLOR, Method: STANDARD PLATE",active; positive
same,mutagenic call,"Test System: AMES SALMONELLA TYPHIMURIUM, Strain/Indicator: TA98, Metabolic Activation: RAT, LIVER, S-9, PCB (5%), Method: PREINCUBATION",active; positive
same,mutagenic call,"Test System: AMES SALMONELLA TYPHIMURIUM, Strain/Indicator: TA98, Metabolic Activation: RAT, LIVER, S-9, PCB, Method: SUSPENSION",active; positive
same,mutagenic call,[2],inactive; negative
same,mutagenic call,"Test System: AMES SALMONELLA TYPHIMURIUM, Strain/Indicator: TA100, Metabolic Activation: NONE, Method: STANDARD PLATE",active; positive
same,mutagenic call,"Test System: AMES SALMONELLA TYPHIMURIUM, Strain/Indicator: TA100, Metabolic Activation: NONE, Method: SUSPENSION",inactive; negative
same,mutagenic call,"Test System: AMES SALMONELLA TYPHIMURIUM, Strain/Indicator: TA100, Metabolic Activation: RAT, LIVER, S-9, AROCLOR, Method: STANDARD PLATE",active; positive
same,mutagenic call,"Test System: AMES SALMONELLA TYPHIMURIUM, Strain/Indicator: TA100, Metabolic Activation: RAT, LIVER, S-9, PCB (5%), Method: PREINCUBATION",inactive; negative
same,mutagenic call,"Test System: AMES SALMONELLA TYPHIMURIUM, Strain/Indicator: TA100, Metabolic Activation: RAT, LIVER, S-9, PCB, Method: SUSPENSION",inactive; negative
COC(=O)/C(C#N)=C/c1ccc(Br)o1,mutagenic call,[1],inactive; negative
Cc1c(N)cccc1N=[N+]([O-])c1cccc(N)c1C,mutagenic call,[1],inactive; negative
same,mutagenic call,"Test System: AMES SALMONELLA TYPHIMURIUM, Strain/Indicator: TA98, Metabolic Activation: RAT, LIVER, S-9, PHENOBARBITAL AND 5,6-BENZOFLAVONE, Method: PREINCUBATION",active; positive
same,mutagenic call,[2],inactive; negative
same,mutagenic call,"Test System: AMES SALMONELLA TYPHIMURIUM, Strain/Indicator: TA100, Metabolic Activation: RAT, LIVER, S-9, PHENOBARBITAL AND 5,6-BENZOFLAVONE, Method: PREINCUBATION",inactive; negative
OC[C@H]1OC(n2cnc3c2ncn2ccnc32)C[C@@H]1O (stereo partly drawn),mutagenic call,[2],inactive; negative
CCCCCCCCCCCCCCCCCC(N)=O,mutagenic call,[1],inactive; negative
same,mutagenic call,"Test System: AMES SALMONELLA TYPHIMURIUM, Strain/Indicator: TA98, Metabolic Activation: RAT LIVER S-9, PHENOBARBITAL AND BETA-NAPHTHOFLAVONE, Method: PREINCUBATION",inactive; negative
same,mutagenic call,[2],inactive; negative
same,mutagenic call,"Test System: AMES SALMONELLA TYPHIMURIUM, Strain/Indicator: TA100, Metabolic Activation: RAT LIVER S-9, PHENOBARBITAL AND BETA-NAPHTHOFLAVONE, Method: PREINCUBATION",inactive; negative
same,mutagenic call,[3],inactive; negative
same,mutagenic call,"Test System: AMES SALMONELLA TYPHIMURIUM, Strain/Indicator: TA1535, Metabolic Activation: RAT LIVER S-9, PHENOBARBITAL AND BETA-NAPHTHOFLAVONE, Method: PREINCUBATION",inactive; negative
same,mutagenic call,[4],inactive; negative
same,mutagenic call,"Test System: AMES SALMONELLA TYPHIMURIUM, Strain/Indicator: TA1537, Metabolic Activation: RAT LIVER S-9, PHENOBARBITAL AND BETA-NAPHTHOFLAVONE, Method: PREINCUBATION",inactive; negative
same,mutagenic call,"Test System: E.COLI, Strain/Indicator: WP2UVRA/PKM101, Metabolic Activation: NONE, Method: PREINCUBATION",inactive; negative
same,mutagenic call,"Test System: E.COLI, Strain/Indicator: WP2UVRA/PKM101, Metabolic Activation: RAT LIVER S-9, PHENOBARBITAL AND BETA-NAPHTHOFLAVONE, Method: PREINCUBATION",inactive; negative
